Measured values as given in patent US20100093624A1, “PEPTIDE THERAPEUTICS THAT BIND VEGF AND METHODS OF USE THEREOF” (Cosmix Therapeutics LLC, priority 2008, published 2010).
Entries after “also recorded” stand apart in the source; their conditions may differ. Values belong to the molecule of their own block, whether it stands above or below them. Non-standard residues stand in square brackets, D forms with d. Residues, ends and D or L forms follow the SMILES beside them. No end group written: not given here. PEG = not defined here

How the values were obtained:
VEGF165 binding to KDR = molecular target: T1, VEGF165 binding to KDR (Homo sapiens, UniProt P15692); test: Receptor ELISA (KDR)
T1 sequence (P15692 27-191 isoform P15692-4 limits assumed): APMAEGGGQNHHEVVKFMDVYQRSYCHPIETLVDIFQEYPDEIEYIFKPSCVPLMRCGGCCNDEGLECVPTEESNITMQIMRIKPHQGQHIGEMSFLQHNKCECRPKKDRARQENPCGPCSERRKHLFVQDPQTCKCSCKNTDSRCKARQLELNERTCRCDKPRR

[1] = molecular target: T2, rh-VEGF165 binding to Flt-1 (Homo sapiens, UniProt P15692); test: Receptor ELISA (Flt-1)
T2 sequence (P15692 27-191 isoform P15692-4 limits assumed): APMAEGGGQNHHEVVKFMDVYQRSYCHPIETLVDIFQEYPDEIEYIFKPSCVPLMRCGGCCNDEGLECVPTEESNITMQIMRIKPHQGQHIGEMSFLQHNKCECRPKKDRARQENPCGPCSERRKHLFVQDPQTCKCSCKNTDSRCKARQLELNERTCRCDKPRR
Text: VEGF acts on two distinct receptors in-vivo, Flt-1 (VEGFR1) and KDR (VEGFR2). The majority of pro-angiogenic signaling appears to be mediated by KDR. Flt-1 binds to VEGF isoforms with a higher affinity than KDR and may serve a largely regulatory role in vivo. […] These studies have been extended using ELISA assays on VEGF Flt-1 binding. In this experiment a soluble fusion of Flt-1 was coated onto Costar ELISA plates. After blocking (2% BSA), solutions of rh-VEGF165 containing serial dilutions of peptide test articles were added. Detection was accomplished using a biotinylated anti-VEGF antibody in combination with a streptavidin-HRP conjugate. The results of the Flt-1 assay are shown in FIG. 6 along with previous results from the analogous KDR assay for comparison.

D-VEGF [2] = test: ELISA of L-peptides from affinity maturation selection; format: binding; details: 25 nM, also 5M, 100 nM, 50 nM and 5 nM
Protocol: FIG. 15 depicts an ELISA analysis of peptides deriving from sequences of the affinity maturation mRNA display selection at 25 nM. […] Then the plates were incubated with 25 nM of peptides 07-007, 07-071 and 07-072 respectively in HBS buffer for one hour at room temperature followed by 4× washes with HBS buffer. Detection with Streptavidin-Peroxidase stained with o-Phenylendiamin and H2O2 for 3 minutes.
Then the plates were incubated with either 5 μM or 100 nM of peptides 07-007, 07-071 and 07-072 respectively in HBS buffer for one hour at room temperature followed by 4× washes with HBS buffer. Detection with Streptavidin-Peroxidase stained with o-Phenylendiamin and H2O2 for 3 minutes.
Then the plates were incubated either with 50 nM or 5 nM of peptides 07-007, 07-071 and 07-072 respectively in HBS buffer for one hour at room temperature followed by 4× washes with HBS buffer. Detection with Streptavidin-Peroxidase stained with o-Phenylendiamin and H2O2 for 3 minutes.
Then the plates were incubated with 25 nM of peptides 07-007, 07-071 and 07-072 respectively in HBS buffer for one hour at room temperature followed by 4× washes with HBS buffer.

L-VEGF = molecular target: T3, L-VEGF (Homo sapiens, UniProt P15692); test: Equilibrium bead-binding assay; details: bead-bound peptide, silver-stained SDS-PAGE
T3 construct: VEGF (8-50)-thioester; VEGF (51-101)-thioester; made in house; host or cells: chemical synthesis (Boc SPPS, ligation of two peptides, oxidative folding)
T3 sequence (P15692 214-315): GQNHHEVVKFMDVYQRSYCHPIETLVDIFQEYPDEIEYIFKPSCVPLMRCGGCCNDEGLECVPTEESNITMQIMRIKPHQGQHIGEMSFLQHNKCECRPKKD
Protocol: (§1) A quick, qualitative binding assay was devised in which biotin-tagged peptides are immobilized onto streptavidin-coated magnetic beads. The bead-bound peptides are then treated with VEGF (either synthetic or commercially available VEGF 165). After washing the beads are then boiled in denaturing buffer to release bound VEGF which is then detected by silver-stained SDS-PAGE gel (see FIG. 4).

D-VEGF [3] = test: Equilibrium bead-binding assay; details: bead-bound peptide, silver-stained SDS-PAGE
Protocol: as §1

VEGF165 [4] = molecular target: T4, VEGF165 (Homo sapiens, UniProt P15692); test: Equilibrium bead-binding assay; details: bead-bound peptide, silver-stained SDS-PAGE
T4 construct: purchased
T4 sequence (P15692 27-191 isoform P15692-4 limits assumed): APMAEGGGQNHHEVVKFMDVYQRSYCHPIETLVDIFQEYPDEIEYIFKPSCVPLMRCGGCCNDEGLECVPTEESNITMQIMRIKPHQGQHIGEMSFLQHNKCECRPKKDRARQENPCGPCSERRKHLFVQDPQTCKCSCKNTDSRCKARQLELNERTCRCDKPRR
Protocol: as §1

VEGF165 [5] = molecular target: T4, VEGF165; test: VEGF ELISA of biotin-tagged D-peptides; format: binding; details: VEGF165 coated wells, streptavidin/HRP detection
Protocol: An ELISA method was developed in which commercially available VEGF165 was coated into ELISA plate wells (MaxiSorb). Biotin-tagged D-peptides (or an anti-VEGF monoclonal antibody, BAF293, R & D Systems) were then added. After washing binding of peptides or antibody to VEGF was determined by treatment with a streptavidin/HRP conjugate which allows colorimetric detection of the presence of the biotin tagged peptides or antibody (see FIG. 3).

HUVEC cells = test: HUVEC cell-proliferation assay; format: cell-based, human; details: for inhibition of HUVEC growth: tritium-labeled thymidine
Text: Initial investigation into the biological activity of the peptides involved use of a HUVEC cell-proliferation assay. A contractor (ReliaTech, Braunschweig, Germany) with considerable experience in this assay was employed to carry it out. ReliaTech's assay employed a radiation-based system to detect cell growth by monitoring DNA synthesis using tritium-labeled thymidine.
In this assay, pregrown, starved HUVEC cells proliferate in response to exposure to VEGF or bFGF. Inhibition of VEGF activity will result in a measurable decrease in cell proliferation. […] The effects seen for other peptide sequences were attributed to the DMSO content of their stock solutions (DMSO was required to solubilize all peptides in this assay except for 07-D60).

[6] = system: VEGF-dependent cell growth; test: VEGF-dependent cell growth assay; format: cell-based
[7] = molecular target: D-VEGF (synthetic VEGF receptor binding domain, residues 8-109, made of D-amino acids) (Homo sapiens (Human)) (UniProt P15692); test: judged from ELISA signals on coated D-VEGF at 5 nM to 5 uM peptide; reference 07-007

Molecule: GNALHWVCASNICWRPPWAGRLWGLVRLT [Peptide G2257]
inhibition of VEGF binding to KDR (VEGF165 binding to KDR; receptor ELISA): inhibition of VEGF binding; also recorded: capable of inhibiting VEGF binding to KDR; also recorded: inhibits binding
inhibition of VEGF binding to Flt-1 [1]: inhibition of VEGF binding; also recorded: inhibits binding

Molecule: H2N-SGSSSGSGSGNALHWVCASNICWRTPWAGQLWRLVRLT-PEG-Bio (H-SGSSSGSGSGNALHWVCASNICWRTPWAGQLWRLVRLT-{PEG-biotin}; cysteine pairing not given here; reading uncertain) [Peptide 07-072]
affinity towards D-VEGF in comparison to the non-matured sequence deriving from G2306 (D-VEGF [2]): vast improvement

binding to D-VEGF (D-VEGF [3]): no detectable affinity
binding to commercially available VEGF 165 (VEGF165 [4]): found to bind
block of VEGF binding in the receptor ELISA (VEGF165 binding to KDR; receptor not specified): does not appear to block VEGF binding
Molecule: CC(C)C[C@@H](NC(=O)[C@@H](CCCNC(=N)N)NC(=O)[C@H](NC(=O)CNC(=O)[C@@H](CCCNC(=N)N)NC(=O)[C@@H](Cc1c[nH]cn1)NC(=O)[C@@H](Cc1ccccc1)NC(=O)[C@H]1CCCN1C(=O)[C@@H](CC(C)C)NC(=O)[C@@H](CC(C)C)NC(=O)[C@H](NC(=O)[C@@H](Cc1c[nH]c2ccccc12)NC(=O)[C@@H](CO)NC(=O)CNC(=O)[C@@H](CC(C)C)NC(=O)[C@H](NC(=O)[C@@H](CO)NC(=O)[C@@H](CO)NC(=O)[C@H](NC(=O)[C@@H](CC(=O)O)NC(=O)[C@@H](CCC(=O)O)NC(=O)[C@@H](CCC(N)=O)NC(=O)[C@H](NC(=O)CN)C(C)C)C(C)C)[C@H](C)O)C(C)C)[C@H](C)O)C(=O)N[C@H](CO)C(=O)N[C@@H](C(=O)N[C@H](Cc1c[nH]c2ccccc12)C(=O)N[C@@H](C(=O)N[C@@H](C(N)=O)[C@H](C)O)C(C)C)C(C)C [Peptide G2226] (H-G[dV][dQ][dE][dD][dV][dS][dS][dT][dL]G[dS][dW][dV][dL][dL][dP][dF][dH][dR]G[dT][dR][dL][dS][dV][dW][dV][dT]-NH2; N-terminus and C-terminus assumed)
binding to L-VEGF (L-VEGF): binds only to L-VEGF; also recorded: found to bind
binding to VEGF165 (VEGF165 [5]): bind tightly; also recorded: best affinity
activity in cell-based assays (HUVEC cells): does not appear to be active

Molecule: NALHWVCASNICWRSPWAGRLWGLVRL [Peptide G2306]
inhibition in a VEGF-dependent cell growth assay [6]: effective dose-dependent inhibition

Molecule: GNALHWVCASNICWRPPWAGRLWGLVRLT [Peptide 07-D60, a modification of G2257]
inhibition of HUVEC growth compared with Avastin (HUVEC cells; 10 micromolar peptide vs 67 nM Avastin): approaches that for 67 nM Avastin
inhibition of HUVEC growth (HUVEC cells): inhibit HUVEC growth in a dose dependent manner; also recorded: inhibit HUVEC cell growth; also recorded: block HUVEC growth in a dose-dependent manner

binding to VEGF165 (VEGF165 [5]): bind tightly
binding to VEGF165 (VEGF165 [5]; listed as G2211/G2226): bind to VEGF165 selectively
Molecule: GVQEDVSSTLGSWVLLPFHRGTRLSVWVT (also: biotinylated form, place not given here) [G2211/2226]

Molecule: Avastin: Genentech's anti-VEGF antibody [reference compound]
inhibition of HUVEC growth (HUVEC cells): strong inhibition

fold improvement of affinity (against the non-mutated sequence 07-007) [7]: > 10 >=fold
Molecule: H-SGSSSGSGSGNALHWVCASNICWRTPWAGQLWRLVRLT-{PEG-biotin} (cysteine pairing not given here; reading uncertain) [Peptide 07-072 (L-form; variant carrying all three hot spot mutations)]
